# From patent publication US10925867B2, “Immunotherapeutic dosing regimens comprising pomalidomide and an anti-CS1 antibody for treating cancer” (Bristol-Myers Squibb Company, priority 2015, dated 2021)
# Where two headings read alike, the source gives them in different places.
# Assays:
# [1] = test system: refractory or relapsed and refractory MM; details: MM-003; cited from earlier work
# OPM2 xenograft [2] = test system: OPM2 xenograft
# Experimental: FIGS. 4A-B. Study #2 (OPM2-16), Antitumor Activity, Elotuzumab Efficacy in Combination with Pomalidomide and Dexamethasone in OPM2 Multiple Myeloma Xenograft. Mice with established OPM2 xenograft tumors were randomized into 2 groups with 8 mice per group and were administered one of the following sets of regimens: (A) Control group was left untreated (filled circles), elotuzumab (0.5 mg/kg, twice weekly IP for 6 doses starting d12, open circles), dexamethasone (5 mg/kg, daily IP for 7 doses starting on d12, open triangles), elotuzumab (0.5 mg/kg, twice weekly IP for 8 doses starting d12) plus dexamethasone combination (filled triangles), pomalidomide (5 mg/kg, daily for 5 days orally starting on d12 and then again for 5 days on d19) plus dexamethasone combination (dashes); or (B) Control group was left untreated (filled circles), elotuzumab (0.5 mg/kg, twice weekly IP for 6 doses starting d12, open circles), pomalidomide (5 mg/kg, daily for 5 days orally starting on d12 and then again for 5 days on d19, open squares), elotuzumab (0.5 mg/kg, twice weekly IP for 8 doses starting d12) plus pomalidomide combination (filled squares), elotuzumab (0.5 mg/kg, twice weekly IP for 8 doses starting d12) plus pomalidomide plus dexamethasone combination (x's). The data are presented as means+/−standard deviation.
# (§1) FIGS. 5A-H. Study #2 (OPM2-16), Anti Tumor Activity of Elotuzumab, Pomalidomide, and Dexamethasone as Single Agent and Combination Treatment in OPM2 Multiple Myeloma Xenograft tumor model. Mice with established OPM2 xenograft tumors were randomized into groups with 8 mice per group and were administered one of the following regimens: (A): untreated (control); (B): elotuzumab; (C): pomalidomide; (D): dexamethasone; (E): elotuzumab plus pomalidomide; (F): elotuzumab plus dexamethasone; (G): pomalidomide plus dexamethasone; or (H): elotuzumab plus pomalidomide plus dexamethasone. Data represent tumor weight measured in individual animals. Dosing route and regimen are described in FIG. 4 and Example 1.
# (§2) Animals: All mice were obtained from Taconic Biosciences (Germantown, N.Y.), and maintained in ammonia-free environment in a defined and pathogen-free colony. All animal procedures were approved by the Bristol-Myers Squibb (BMS) Institutional Animal Care and Use Committee. The animal care and use program at BMS has been fully accredited by the Association for Assessment and Accreditation of Laboratory Animal Care International (AAALAC).
# (§3) Animal Models: The human tumor xenograft OPM2 was grown in IcrTac scid mice (ICRPrkdcscid). Treated animals were checked daily for treatment related toxicity/mortality. Each group of animals was weighed before the initiation of treatment (Wt1) and then weighed again following the last treatment dose (Wt2). The difference in body weight (Wt2-Wt1) provides a measure of treatment-related toxicity. Additional weights were recorded at each measurement date to monitor toxicity.
# (§4) Tumor response was determined by measurement of tumors with a caliper twice a week, until the tumors reached a predetermined “target” size of 1 gm. Tumor weights (mg) were estimated from the formula: Tumor weight=(length×width2)/2.
# (§5) Tumor response end-point was expressed in terms of tumor cell kill and tumor growth inhibition. Tumor growth delay was defined as the difference in time (days) required for the treated tumors (T) to reach a predetermined target size compared to those in the control group (C). For this purpose tumor weight of a group was expressed as […] tumor weight (MTW).
# (§6) Tumor cell kill was expressed in terms of log cell kill (LCK), represented by the equation LCK=[…] where tumor volume doubling time (TVDT) was first calculated with the formula: TVDT=Median time (days) for control tumor weight to reach target size−Median time (days) for control tumor weight to reach half the target size.
# OPM2 xenograft [3] = test system: OPM2 xenograft; remark: listed apart in the source
# Experimental: Mice with established OPM2 xenograft tumors were randomized into 2 groups with 8 mice per group and were administered one of the following sets of regimens: (A) Control group was left untreated (filled circles), elotuzumab (0.5 mg/kg, twice weekly IP for 7 doses starting d16, open circles), dexamethasone (5 mg/kg, daily IP for 7 doses starting on d16, open triangles), elotuzumab plus dexamethasone combination (filled triangles), pomalidomide (5 mg/kg, daily for 5 days orally starting on d16 and then again for 5 days on d23) plus dexamethasone combination (dashes); or (B) Control group was left untreated (filled circles), elotuzumab (0.5 mg/kg, twice weekly IP for 7 doses starting d16, open circles), pomalidomide (5 mg/kg, daily for 5 days orally starting on d16 and then again for 5 days on d23, open squares), elotuzumab (0.5 mg/kg, twice weekly IP for 10 doses starting d16) plus pomalidomide combination (filled squares), elotuzumab (10 doses) plus pomalidomide plus dexamethasone combination (x's). The data are presented as means+/−standard deviation.
# as §1, with “Mice” for “FIGS. 5A-H. Study #2 (OPM2-16), Anti Tumor Activity of Elotuzumab, Pomalidomide, and Dexamethasone as Single Agent and Combination Treatment in OPM2 Multiple Myeloma Xenograft tumor model. Mice”, “2” for “4”
# as §2, §3, §4, §5, §6
# multiple myeloma [4] = details: treated multiple myeloma patients; cited from earlier work
# multiple myeloma [5] = details: cited from earlier work
# [6] = Study #2, ELO 0.5, POM 5, DEX 5 mg/kg, mice of 8
# [7] = Study #1, ELO 0.5, POM 5, DEX 5 mg/kg, mice of 8
# [8] = in combination with dexamethasone as induction therapy before ASCT
# [9] = three-drug induction: bortezomib-dexamethasone plus the named drug
compound,measurement,setting,value
C[C@@H]1C[C@H]2[C@@H]3CCC4=CC(=O)C=C[C@]4(C)[C@@]3(F)[C@@H](O)C[C@]2(C)[C@@]1(O)C(=O)CO [Dexamethasone],grade 3-4 anemia,[1],37%
same,grade 3-4 bone pain,[1],5%
same,grade 3-4 fatigue,[1],6%
same,grade 3-4 neutropenia,[1],16%
same,grade 3-4 pneumonia,[1],8%
same,grade 3-4 thrombocytopenia,[1],26%
same,Median Days to Target Size,"OPM2 xenograft [2]; Study #2, ELO 0.5 mg/kg IP 2QW from d12, POM 5 mg/kg PO QD × 5 d12, 19, DEX 5 mg/kg IP QD × 7 from d12, target size 1 gm",25.7 days
same,LCK,"OPM2 xenograft [2]; Study #2, ELO 0.5, POM 5, DEX 5 mg/kg",0.63
same,CR (complete tumor regressions),OPM2 xenograft [2]; [6],0/8
same,PR (partial tumor regressions),OPM2 xenograft [2]; [6],0/8
same,TGI,"OPM2 xenograft [2]; Study #2, ELO 0.5, POM 5, DEX 5 mg/kg, versus untreated mice",62.8%
same,Max % Weight Loss,"OPM2 xenograft [2]; mouse, in vivo",−9.0%
same,Median Days to Target Size,"OPM2 xenograft [3]; Study #1, ELO 0.5 mg/kg IP 2QW from d16, POM 5 mg/kg PO QD × 5 d16, 23, DEX 5 mg/kg IP QD × 7 from d16, target size 1 gm",28.0 days
same,LCK,"OPM2 xenograft [3]; Study #1, ELO 0.5, POM 5, DEX 5 mg/kg",0.14
same,CR (complete tumor regressions),OPM2 xenograft [3]; [7],0/8
same,PR (partial tumor regressions),OPM2 xenograft [3]; [7],0/8
same,TGI,"OPM2 xenograft [3]; Study #1, ELO 0.5, POM 5, DEX 5 mg/kg, versus untreated mice",50.4%
same,Max % Weight Loss,"OPM2 xenograft [3]; mouse, in vivo",−5.7%
CC(C)C[C@H](NC(=O)[C@H](Cc1ccccc1)NC(=O)c1cnccn1)B(O)O [bortezomib],response rate,multiple myeloma [4],38%
same,rates of nearly CR,multiple myeloma [5]; [8],16%
O=P1(N(CCCl)CCCl)NCCCO1 (stereo not drawn) [cyclophosphamide],rates of nearly CR,multiple myeloma [5]; [9],39%
COc1cccc2c1C(=O)c1c(O)c3c(c(O)c1C2=O)C[C@@](O)(C(=O)CO)C[C@@H]3O[C@H]1C[C@H](N)[C@H](O)[C@H](C)O1 [doxorubicin],rates of nearly CR,multiple myeloma [5]; [9],7%
Nc1cccc2c1CN(C1CCC(=O)NC1=O)C2=O (stereo not drawn) [lenalidomide],response rate,multiple myeloma [4],40%-50%
same,rates of nearly CR,multiple myeloma [5]; [8],15%
same,rates of nearly CR,multiple myeloma [5]; [9],57%
O=C1CCC(N2C(=O)c3ccccc3C2=O)C(=O)N1 (stereo not drawn) [thalidomide],rates of nearly CR,multiple myeloma [5]; [8],8%
same,rates of nearly CR,multiple myeloma [5]; [9],32%
